Assay results from ChEMBL document CHEMBL3132769, “Fragment growing to retain or alter the selectivity of anchored kinase hinge-binding fragments” (Medchemcomm, 2014).

Tests used:
[1] = biological target: Aurora kinase B (Homo sapiens) (UniProt Q96GD4); test: Inhibition of human full length AurB expressed in baculovirus assessed as substrate phosphorylation using fluorescence-labelled peptides as substrate at 0.06 uM after 90 mins by microfluidic peptide phosphorylation assay
[2] = biological target: T1, cGMP-dependent protein kinase 1 (Homo sapiens) (UniProt Q13976); test: Inhibition of human full length PKG-1beta expressed in baculovirus assessed as substrate phosphorylation using fluorescence-labelled peptides as substrate at 0.2 uM after 90 mins by microfluidic peptide phosphorylation assay
T1 sequence (whole entry): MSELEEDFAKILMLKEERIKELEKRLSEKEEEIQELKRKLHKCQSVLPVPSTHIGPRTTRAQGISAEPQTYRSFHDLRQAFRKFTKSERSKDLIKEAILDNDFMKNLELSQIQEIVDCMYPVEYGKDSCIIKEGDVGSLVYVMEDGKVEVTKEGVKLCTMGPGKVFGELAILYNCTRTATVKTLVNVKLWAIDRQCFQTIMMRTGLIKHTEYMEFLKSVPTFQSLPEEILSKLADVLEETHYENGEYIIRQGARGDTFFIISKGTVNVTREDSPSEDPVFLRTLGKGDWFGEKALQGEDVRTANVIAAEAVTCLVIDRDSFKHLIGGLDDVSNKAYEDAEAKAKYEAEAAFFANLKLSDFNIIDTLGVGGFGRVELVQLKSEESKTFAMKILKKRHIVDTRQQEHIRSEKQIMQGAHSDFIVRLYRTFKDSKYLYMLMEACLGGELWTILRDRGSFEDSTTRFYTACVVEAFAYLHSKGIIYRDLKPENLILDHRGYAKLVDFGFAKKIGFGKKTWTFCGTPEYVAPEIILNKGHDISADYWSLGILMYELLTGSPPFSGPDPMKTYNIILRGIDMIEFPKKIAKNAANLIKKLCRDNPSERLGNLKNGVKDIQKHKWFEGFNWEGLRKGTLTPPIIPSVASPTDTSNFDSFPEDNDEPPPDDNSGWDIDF

[3] = biological target: Serine/threonine-protein kinase Chk2 (Homo sapiens) (UniProt O96017); test: Inhibition of human full length CHK2 expressed in baculovirus assessed as substrate phosphorylation using fluorescence-labelled peptides as substrate at 0.2 uM after 90 mins by microfluidic peptide phosphorylation assay
[4] = biological target: MAP kinase-activated protein kinase 3 (Homo sapiens) (UniProt Q16644); test: Inhibition of human full length MAPKAPK3 expressed in Escherichia coli cell assessed as substrate phosphorylation using fluorescence-labelled peptides as substrate at 2 uM after 90 mins by microfluidic peptide phosphorylation assay
[5] = biological target: T2, Serine/threonine-protein kinase Sgk2 (Homo sapiens) (UniProt Q9HBY8); test: Inhibition of human full length SGK2 expressed in baculovirus assessed as substrate phosphorylation using fluorescence-labelled peptides as substrate at 2 uM after 90 mins by microfluidic peptide phosphorylation assay
T2 sequence (whole entry): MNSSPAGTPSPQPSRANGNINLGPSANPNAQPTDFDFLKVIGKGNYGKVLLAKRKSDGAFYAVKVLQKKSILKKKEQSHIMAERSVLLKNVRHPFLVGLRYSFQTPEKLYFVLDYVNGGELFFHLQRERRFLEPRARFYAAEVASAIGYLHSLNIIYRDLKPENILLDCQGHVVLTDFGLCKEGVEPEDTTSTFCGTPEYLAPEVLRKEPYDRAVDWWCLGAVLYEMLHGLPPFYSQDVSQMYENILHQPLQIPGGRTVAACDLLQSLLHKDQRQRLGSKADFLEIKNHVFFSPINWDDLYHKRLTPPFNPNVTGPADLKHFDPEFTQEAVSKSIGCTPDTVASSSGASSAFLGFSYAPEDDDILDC

[6] = biological target: T3, Serine/threonine-protein kinase D1 (Homo sapiens) (UniProt Q15139); test: Inhibition of human full length PKD1 expressed in baculovirus assessed as substrate phosphorylation using fluorescence-labelled peptides as substrate at […] after 90 mins by microfluidic peptide phosphorylation assay
T3 sequence (whole entry): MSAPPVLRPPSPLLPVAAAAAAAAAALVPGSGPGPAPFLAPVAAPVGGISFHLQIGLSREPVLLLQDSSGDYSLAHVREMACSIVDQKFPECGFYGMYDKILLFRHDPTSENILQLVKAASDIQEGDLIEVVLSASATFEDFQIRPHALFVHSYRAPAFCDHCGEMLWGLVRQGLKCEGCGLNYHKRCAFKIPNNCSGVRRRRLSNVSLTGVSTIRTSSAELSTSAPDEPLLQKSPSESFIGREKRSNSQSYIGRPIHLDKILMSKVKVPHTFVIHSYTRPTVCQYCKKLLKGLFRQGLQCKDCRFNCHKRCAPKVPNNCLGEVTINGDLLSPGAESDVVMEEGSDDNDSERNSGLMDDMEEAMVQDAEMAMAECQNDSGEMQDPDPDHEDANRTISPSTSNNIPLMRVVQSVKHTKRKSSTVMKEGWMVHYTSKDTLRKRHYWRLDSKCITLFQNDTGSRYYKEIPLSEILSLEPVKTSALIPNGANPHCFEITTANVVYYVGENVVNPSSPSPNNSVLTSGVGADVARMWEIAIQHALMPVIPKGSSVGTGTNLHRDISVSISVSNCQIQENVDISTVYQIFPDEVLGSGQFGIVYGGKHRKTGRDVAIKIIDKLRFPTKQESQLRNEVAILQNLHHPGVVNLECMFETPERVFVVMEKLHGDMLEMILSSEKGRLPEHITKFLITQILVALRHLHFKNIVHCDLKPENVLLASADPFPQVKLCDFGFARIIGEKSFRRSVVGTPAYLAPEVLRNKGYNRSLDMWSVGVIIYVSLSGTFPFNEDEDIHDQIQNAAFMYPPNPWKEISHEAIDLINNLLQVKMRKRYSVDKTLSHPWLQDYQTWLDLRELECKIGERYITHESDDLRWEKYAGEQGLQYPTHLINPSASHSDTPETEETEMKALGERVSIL

[7] = biological target: Protein kinase C theta type (Homo sapiens) (UniProt Q04759); test: Inhibition of human truncated PKC theta expressed in baculovirus assessed as substrate phosphorylation using fluorescence-labelled peptides as substrate at 9 uM after 90 mins by microfluidic peptide phosphorylation assay
[8] = biological target: Vascular endothelial growth factor receptor 2 (Homo sapiens) (UniProt P35968); test: Inhibition of human KDR cytoplasmic domain expressed in baculovirus assessed as substrate phosphorylation using fluorescence-labelled peptides as substrate at 70 uM after 90 mins by microfluidic peptide phosphorylation assay
Vascular endothelial growth factor receptor 2 (Homo sapiens), sequence (P35968 whole entry, the tested form may be a part): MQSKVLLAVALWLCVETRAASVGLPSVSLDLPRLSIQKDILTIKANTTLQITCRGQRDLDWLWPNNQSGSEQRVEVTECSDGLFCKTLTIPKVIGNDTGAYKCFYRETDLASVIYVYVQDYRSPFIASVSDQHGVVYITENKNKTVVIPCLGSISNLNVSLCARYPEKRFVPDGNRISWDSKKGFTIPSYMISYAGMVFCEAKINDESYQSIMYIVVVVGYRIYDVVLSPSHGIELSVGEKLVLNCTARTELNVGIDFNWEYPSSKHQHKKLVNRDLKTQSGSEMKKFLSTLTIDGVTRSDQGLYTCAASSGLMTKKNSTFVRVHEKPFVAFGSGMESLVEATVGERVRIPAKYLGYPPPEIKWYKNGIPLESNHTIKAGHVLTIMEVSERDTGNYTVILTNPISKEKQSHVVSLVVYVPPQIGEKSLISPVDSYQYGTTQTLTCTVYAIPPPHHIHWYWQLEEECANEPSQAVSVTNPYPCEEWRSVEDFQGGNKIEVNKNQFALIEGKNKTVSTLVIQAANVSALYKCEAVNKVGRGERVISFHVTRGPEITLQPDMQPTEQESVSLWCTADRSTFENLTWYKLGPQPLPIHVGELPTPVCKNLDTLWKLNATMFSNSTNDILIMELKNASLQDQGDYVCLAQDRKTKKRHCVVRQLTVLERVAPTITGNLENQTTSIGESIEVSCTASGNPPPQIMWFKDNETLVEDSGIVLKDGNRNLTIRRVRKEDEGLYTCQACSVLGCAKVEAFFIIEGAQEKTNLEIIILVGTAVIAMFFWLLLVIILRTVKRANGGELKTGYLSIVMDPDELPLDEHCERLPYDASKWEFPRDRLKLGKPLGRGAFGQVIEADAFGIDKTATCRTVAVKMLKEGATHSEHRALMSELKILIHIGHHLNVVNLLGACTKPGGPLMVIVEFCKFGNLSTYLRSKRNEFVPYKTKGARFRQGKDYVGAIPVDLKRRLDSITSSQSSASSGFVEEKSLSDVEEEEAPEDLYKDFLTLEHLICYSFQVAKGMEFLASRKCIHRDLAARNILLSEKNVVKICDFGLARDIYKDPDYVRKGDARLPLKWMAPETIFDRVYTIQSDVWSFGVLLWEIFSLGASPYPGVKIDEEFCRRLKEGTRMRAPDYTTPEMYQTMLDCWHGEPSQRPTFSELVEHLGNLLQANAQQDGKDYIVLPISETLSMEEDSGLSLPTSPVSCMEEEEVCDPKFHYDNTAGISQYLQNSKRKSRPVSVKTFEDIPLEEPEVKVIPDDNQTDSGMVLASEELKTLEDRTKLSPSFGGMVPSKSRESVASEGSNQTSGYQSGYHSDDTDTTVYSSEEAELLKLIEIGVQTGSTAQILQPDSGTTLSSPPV

Aurora kinase B (Homo sapiens), sequence (Q96GD4 whole entry): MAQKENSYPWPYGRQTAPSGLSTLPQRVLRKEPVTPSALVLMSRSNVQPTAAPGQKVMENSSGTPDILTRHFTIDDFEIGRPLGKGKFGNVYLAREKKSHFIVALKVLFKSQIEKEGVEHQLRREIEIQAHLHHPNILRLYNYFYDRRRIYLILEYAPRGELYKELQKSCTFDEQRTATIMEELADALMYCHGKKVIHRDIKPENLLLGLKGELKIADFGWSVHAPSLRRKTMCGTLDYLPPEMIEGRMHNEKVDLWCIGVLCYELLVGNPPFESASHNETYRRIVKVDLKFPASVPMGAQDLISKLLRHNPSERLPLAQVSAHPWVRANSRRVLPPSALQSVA
Serine/threonine-protein kinase Chk2 (Homo sapiens), sequence (O96017 whole entry): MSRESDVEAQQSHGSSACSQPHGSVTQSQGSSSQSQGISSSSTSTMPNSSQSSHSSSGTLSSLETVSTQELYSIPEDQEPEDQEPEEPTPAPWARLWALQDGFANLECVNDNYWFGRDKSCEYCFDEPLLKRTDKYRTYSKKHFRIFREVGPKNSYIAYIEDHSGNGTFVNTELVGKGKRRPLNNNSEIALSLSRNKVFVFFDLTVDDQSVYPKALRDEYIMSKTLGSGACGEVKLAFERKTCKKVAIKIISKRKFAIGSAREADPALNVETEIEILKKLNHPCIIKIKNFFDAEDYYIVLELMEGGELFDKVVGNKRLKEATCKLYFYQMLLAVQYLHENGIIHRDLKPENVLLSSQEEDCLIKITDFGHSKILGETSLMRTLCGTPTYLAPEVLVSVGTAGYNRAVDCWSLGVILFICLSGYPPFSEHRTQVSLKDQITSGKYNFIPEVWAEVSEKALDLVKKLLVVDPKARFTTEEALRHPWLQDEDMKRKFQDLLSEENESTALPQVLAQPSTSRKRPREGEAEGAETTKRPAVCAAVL
Protein kinase C theta type (Homo sapiens), sequence (Q04759 whole entry, looked up, the tested form may be a part): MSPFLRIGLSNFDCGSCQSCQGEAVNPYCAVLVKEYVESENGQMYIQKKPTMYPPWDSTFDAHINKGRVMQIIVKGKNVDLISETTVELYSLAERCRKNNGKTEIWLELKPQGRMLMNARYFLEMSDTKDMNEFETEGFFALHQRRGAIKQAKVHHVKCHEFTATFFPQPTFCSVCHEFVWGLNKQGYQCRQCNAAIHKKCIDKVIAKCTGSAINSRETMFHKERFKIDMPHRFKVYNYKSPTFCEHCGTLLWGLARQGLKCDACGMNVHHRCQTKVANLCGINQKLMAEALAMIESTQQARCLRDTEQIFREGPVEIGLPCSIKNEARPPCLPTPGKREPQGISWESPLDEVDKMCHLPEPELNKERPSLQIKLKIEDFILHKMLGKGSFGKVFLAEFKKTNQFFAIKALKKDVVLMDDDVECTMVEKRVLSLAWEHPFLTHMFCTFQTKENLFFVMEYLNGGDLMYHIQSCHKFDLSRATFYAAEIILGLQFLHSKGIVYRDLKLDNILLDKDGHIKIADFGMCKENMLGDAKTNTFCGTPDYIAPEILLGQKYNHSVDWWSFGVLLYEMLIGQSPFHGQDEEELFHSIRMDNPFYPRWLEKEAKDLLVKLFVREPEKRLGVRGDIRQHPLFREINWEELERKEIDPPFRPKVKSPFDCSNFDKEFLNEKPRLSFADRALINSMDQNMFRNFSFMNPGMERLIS
MAP kinase-activated protein kinase 3 (Homo sapiens), sequence (Q16644 whole entry, looked up): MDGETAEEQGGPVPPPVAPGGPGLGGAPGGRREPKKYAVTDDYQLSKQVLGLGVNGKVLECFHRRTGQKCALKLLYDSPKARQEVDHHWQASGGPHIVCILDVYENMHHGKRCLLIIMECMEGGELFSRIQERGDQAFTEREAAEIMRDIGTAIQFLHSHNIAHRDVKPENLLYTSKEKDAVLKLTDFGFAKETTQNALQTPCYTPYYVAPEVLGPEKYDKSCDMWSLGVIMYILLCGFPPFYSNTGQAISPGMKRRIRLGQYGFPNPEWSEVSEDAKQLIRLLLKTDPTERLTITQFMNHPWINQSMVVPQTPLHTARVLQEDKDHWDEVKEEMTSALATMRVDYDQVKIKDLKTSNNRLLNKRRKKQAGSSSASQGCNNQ

Work on NC1(Cc2ccc(Cl)cc2)CCN(c2ncnc3[nH]ccc23)CC1 yielded an inhibition [1] of 0%.

In the case of Clc1ccc(C2(c3ccc(-c4ncnc5[nH]cnc45)cc3)CCNCC2)cc1, the inhibition [2] is reported as 88.5% and the inhibition [3] is reported as 59%.

NC1CCN(c2ncnc3[nH]ccc23)CC1 showed an inhibition [4] of 45.5% and an inhibition [5] of 46.5%.

With COC(=O)c1cnc(Nc2cnc(C#N)cn2)cc1NCC1CCNCC1 the inhibition [6] was 3%.

For NCC1CN(c2ncnc3[nH]c4cnccc4c23)CCO1 (stereo not drawn), the inhibition [7] was 52.5%.

In the case of CNCc1ccc(-c2ncnc3[nH]cnc23)cc1, the inhibition [8] is reported as 64%.
